Common to all, as to assay type: in vivo
Set-up in all cases: key: Type I mouse is a mouse confirmed to highly sensitive to the anticancer agent. By administering paclitaxel into this type of mouse, the tumor almost disappeared; Type II mouse is a mouse whose sensitivity to the anticancer agent was confirmed to be moderate. By administering paclitaxel into this type of mouse, the increase in tumor size is suppressed; Type III mouse is a mouse confirmed to be poor in sensitivity to the anticancer agent. Even if paclitaxel is administered into this type of mouse, the tumor size continues increasing

The subject of test [1] is human-derived breast cancer cultured cells (cell A). The experiment in a line: Paclitaxel effect on tumor size in mice grafted with breast cancer cells A. The settings on record: Cell A graft; paclitaxel 20 mg/kg/day once a day for 5 day; change in tumor size to day 11; one line per mouse. How it is done:
(§1) Five kinds of human-derived breast cancer cultured cells (cells A to E) were transplanted subcutaneously into the back of mice, and the mice were maintained for 21 to 28 days to graft the breast tumor cells thereon. 50 mice (Nos. 1 to 50 (Table 2)) on which the breast tumor cells had been grafted were thus created. From the back of each of these mice, a 2.5 mm×2.5 mm tissue section (about 50 mg) was cut off, and a lysis buffer (containing 0.1 w/v % Nonidet P-40 (NP-40) (manufactured by Calbiochem), 50 mM Tris-HCl (pH 7.4), 5 mM EDTA, 50 mM sodium fluoride, 1 mM sodium orthovanadate and 100 μl/ml protease cocktail (Sigma)) was added to this tissue section. The tissue section in the lysis buffer was homogenized with an electric homogenizer.
(§2) 20 mg/kg (mouse weight)/day of paclitaxel was administered once a day into each of mice Nos. 1 to 50 for 5 day. The tumor size from the initiation of administration to day 11 was measured. Depending on change in tumor size, mice Nos. 1 to 50 were classified into types I, II and III. Type I mouse is a mouse confirmed to highly sensitive to the anticancer agent. By administering paclitaxel into this type of mouse, the tumor almost disappeared. Type II mouse is a mouse whose sensitivity to the anticancer agent was confirmed to be moderate. By administering paclitaxel into this type of mouse, the increase in tumor size is suppressed. […]

The subject of test [2] is human-derived breast cancer cultured cells (cell B). The experiment in a line: Paclitaxel effect on tumor size in mice grafted with breast cancer cells B. The settings on record: Cell B graft; paclitaxel 20 mg/kg/day once a day for 5 day; change in tumor size to day 11; one line per mouse. How it is done:
as §1, §2

Test [3] has as its system human-derived breast cancer cultured cells (cell C). The test is described as follows: Paclitaxel effect on tumor size in mice grafted with breast cancer cells C. The settings on record: Cell C graft; paclitaxel 20 mg/kg/day once a day for 5 day; change in tumor size to day 11; one line per mouse. How it is done: as §1, §2
Test [4] deals with human-derived breast cancer cultured cells (cell D). The experiment in a line: Paclitaxel effect on tumor size in mice grafted with breast cancer cells D. The settings on record: Cell D graft; paclitaxel 20 mg/kg/day once a day for 5 day; change in tumor size to day 11; one line per mouse. How it is done:
as §1, §2

Test [5] concerns human-derived breast cancer cultured cells (cell E). The experiment in a line: Paclitaxel effect on tumor size in mice grafted with breast cancer cells E. The settings on record: Cell E graft; paclitaxel 20 mg/kg/day once a day for 5 day; change in tumor size to day 11; one line per mouse. How it is done:
as §1, §2

Take `CC(=O)O[C@H]1C(=O)[C@@]2(C)[C@H]([C@H](OC(=O)c3ccccc3)[C@]3(O)C[C@H](OC(=O)[C@H](O)[C@@H](NC(=O)c4ccccc4)c4ccccc4)C(C)=C1C3(C)C)[C@]1(OC(C)=O)CO[C@@H]1C[C@@H]2O` [paclitaxel]: the “result of (4)” value is on record as “Type I” in test [1]; “Type II” in test [2]; “Type II” in test [3]; “Type III” in test [4]; “Type III” in test [5].

Values taken from patent publication US20060173632A1, “Method for predicting effectiveness of chemotherapy” (SYSMEX CORPORATION, priority 2005, published 2006).
